Results reported in patent US10072011B2, “Substituted bridged urea analogs as sirtuin modulators” (GlaxoSmithKline Intellectual Property (No.2) Limited, priority 2014, dated 2018).

Target: T1, SIRT1 (Homo sapiens, UniProt Q96EB6)
T1 sequence (Q96EB6 1-747): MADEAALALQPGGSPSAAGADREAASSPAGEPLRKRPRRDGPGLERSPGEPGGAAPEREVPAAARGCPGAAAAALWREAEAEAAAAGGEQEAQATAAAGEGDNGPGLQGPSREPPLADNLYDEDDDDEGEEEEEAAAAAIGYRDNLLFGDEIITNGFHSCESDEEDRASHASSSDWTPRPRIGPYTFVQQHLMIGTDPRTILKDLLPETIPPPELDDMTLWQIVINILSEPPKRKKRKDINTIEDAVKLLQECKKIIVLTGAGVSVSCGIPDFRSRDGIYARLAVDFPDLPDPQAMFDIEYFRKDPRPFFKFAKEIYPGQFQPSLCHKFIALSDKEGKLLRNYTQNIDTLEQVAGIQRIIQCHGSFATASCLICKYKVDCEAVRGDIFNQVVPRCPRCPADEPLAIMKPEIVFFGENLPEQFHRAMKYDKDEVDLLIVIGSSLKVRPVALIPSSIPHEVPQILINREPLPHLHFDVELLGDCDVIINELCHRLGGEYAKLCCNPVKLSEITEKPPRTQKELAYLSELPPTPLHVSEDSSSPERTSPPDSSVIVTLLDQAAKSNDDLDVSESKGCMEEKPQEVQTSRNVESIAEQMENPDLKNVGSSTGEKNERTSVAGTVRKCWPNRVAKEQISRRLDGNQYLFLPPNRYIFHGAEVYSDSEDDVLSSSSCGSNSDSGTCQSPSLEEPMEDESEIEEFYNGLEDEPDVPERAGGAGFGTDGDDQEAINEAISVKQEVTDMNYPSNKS
Test: Trp mass spectrometry assay of SIRT1 activation (Ac-R-H-K-K(Ac)-W-NH2 peptide)
Format: biochemical
Conditions: Trp peptide 0.5 μM, 120 μM βNAD+, 10 nM SIRT1, 25 min at 25° C.; for Emax: 25 min, relative to control (100%), read-out: TRP MAX RESP (percent maximum fold activation)
Method in brief: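 N-terminal His-tagged human SIRT1, expressed in BL21(DE3) and purified, was incubated 25 min with an acetylated Trp peptide and NAD plus test compound at varying concentrations, then quenched with formic acid. OAADPR or deacetylated peptide was quantified by mass spectrometry versus compound-free control; EC1.5 is the concentration giving 50% activity increase, with percent maximum activation.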

Structure (SMILES)	Emax [%]	TRP Activity (EC1.5, concentration of test compound that results in 150% activation of SIRT1)
CNC(=O)c1ccc(NC(=O)N2c3nc(C(=O)NCC(F)(F)F)ccc3N3CC[C@H]2C3)nc1 [Example 168, (4S)—N5-(5-(methylcarbamoyl)pyridin-2-yl)-N7-(2,2,2-trifluoroethyl)-3,4-dihydro-1,4-methanopyrido[2,3-b][1,4]diazepine-5,7(2H)-dicarboxamide]	> 150	A (EC1.5<1 μM)
Cc1ccc(NC(=O)N2c3nc(C(=O)NCC4CC4)ccc3N3CC[C@H]2C3)nc1 [Example 111, (4S)—N7-(cyclopropylmethyl)-N5-(5-methylpyridin-2-yl)-3,4-dihydro-1,4-methanopyrido[2,3-b][1,4]diazepine-5,7(2H)-dicarboxamide]	> 150	A (EC1.5<1 μM)
O=C(OCC(F)(F)F)c1ccc2c(n1)N(C(=O)Nc1ccccn1)[C@H]1CCN2C1 [Example 278, (4S)-2,2,2-trifluoroethyl 5-(pyridin-2-ylcarbamoyl)-2,3,4,5-tetrahydro-1,4-methanopyrido[2,3-b][1,4]diazepine-7-carboxylate]	> 150	B (EC1.5 1-25 μM)
O=C(NC1CC1)c1ccc2c(n1)N(C(=O)Nc1ccc(Cl)cn1)[C@H]1CCN2C1 [Example 67, (4S)—N5-(5-chloropyridin-2-yl)-N7-cyclopropyl-3,4-dihydro-1,4-methanopyrido[2,3-b][1,4]diazepine-5,7(2H)-dicarboxamide]	> 150	B (EC1.5 1-25 μM)
C[C@@H](NC(=O)c1ccc2c(n1)N(C(=O)NCC(=O)N(C)C)[C@H]1CCN2C1)C(F)(F)F [Example 217, (4S)—N5-(2-(dimethylamino)-2-oxoethyl)-N7-((R)-1,1,1-trifluoropropan-2-yl)-3,4-dihydro-1,4-methanopyrido[2,3-b][1,4]diazepine-5,7(2H)-dicarboxamide]	> 150	B (EC1.5 1-25 μM)
C[C@@H](NC(=O)c1ccc2c(n1)N(C(=O)Nc1nccc(OC[C@H](O)CO)n1)[C@H]1CCN2C1)C(F)(F)F [Example 244, (4S)—N5-(4-((R)-2,3-dihydroxypropoxy)pyrimidin-2-yl)-N7-((R)-1,1,1-trifluoropropan-2-yl)-3,4-dihydro-1,4-methanopyrido[2,3-b][1,4]diazepine-5,7(2H)-dicarboxamide]	> 150	A (EC1.5<1 μM)
O=C(NC(CCO)C(F)(F)F)c1ccc2c(n1)N(C(=O)Nc1ccccn1)[C@H]1CCN2C1 (single isomer, unassigned) [Example 18]	> 150	A (EC1.5<1 μM)
O=C(NCC(F)(F)F)c1ccc2c(n1)N(C(=O)Nc1cccc[n+]1[O-])[C@H]1CC[N+]2([O-])C1 [Example 275, (4S)-5-((1-oxidopyridin-2-yl)carbamoyl)-7-((2,2,2-trifluoroethyl)carbamoyl)-2,3,4,5-tetrahydro-1H-1,4-methanopyrido[2,3-b][1, 4]diazepine 1-oxide]	> 150	C (EC1.5>25 μM)
CC(C)(C)CNC(=O)c1ccc2c(n1)N(C(=O)Nc1ccccn1)[C@H]1CCN2C1 [Example 15, (4S)—N-7-neopentyl-N-5-(pyridin-2-yl)-3,4-dihydro-1,4-methanopyrido[2,3-b][1,4]diazepine-5,7(2H)-dicarboxamide]	> 150	A (EC1.5<1 μM)
Cc1ccc2c(NC(=O)N3c4nc(C(=O)NC[C@@H](N)C(F)(F)F)ccc4N4CC[C@H]3C4)n[nH]c2n1 (single isomer, unassigned) [Example 233]	> 150	
O=C(NC1CC1(F)F)c1ccc2c(n1)N(C(=O)Nc1cnccn1)[C@H]1CCN2C1 (single isomer, unassigned) [Example 272]	> 150	A (EC1.5<1 μM)
O=C(NC[C@@H](O)C(F)(F)F)c1ccc2c(n1)N(C(=O)Nc1ccccn1)[C@H]1CCN2C1 [Example 34, (4S)—N5-(pyridin-2-yl)-N7-((R)-3,3,3-trifluoro-2-hydroxypropyl)-3,4-dihydro-1,4-methanopyrido[2,3-b][1,4]diazepine-5,7(2H)-dicarboxamide]	> 150	A (EC1.5<1 μM)
O=C(NCC(F)(F)F)c1ccc2c(n1)N(C(=O)Nc1ccccn1)[C@H]1CCN2C1 [Example 1]	> 150	A (EC1.5<1 μM)
CNC(=O)c1ccc2c(n1)N(C(=O)Nc1ccccn1)[C@H]1CCN2C1 [Example 212, (4S)—N7-methyl-N5-(pyridin-2-yl)-3,4-dihydro-1,4-methanopyrido[2,3-b][1,4]diazepine-5,7(2H)-dicarboxamide]	> 150	B (EC1.5 1-25 μM)
CC(F)(F)CNC(=O)c1ccc2c(n1)N(C(=O)Nc1cc(OC[C@H](O)CO)ccn1)[C@H]1CCN2C1 [Example 183, (4S)—N7-(2,2-difluoropropyl)-N5-(4-((R)-2,3-dihydroxypropoxy)pyridin-2-yl)-3,4-dihydro-1,4-methanopyrido[2,3-b][1,4]diazepine-5,7(2H)-dicarboxamide]	> 150	B (EC1.5 1-25 μM)

Results, then the compound that gave them:

Emax [%]	TRP Activity (EC1.5, concentration of test compound that results in 150% activation of SIRT1)	Structure (SMILES)
> 150	B (EC1.5 1-25 μM)	C[C@@H](NC(=O)c1ccc2c(n1)N(C(=O)Nc1cc(OCCN(C)C)ccn1)[C@H]1CCN2C1)C(F)(F)F [Example 268, (4S)—N5-(4-(2-(dimethylamino)ethoxy)pyridin-2-yl)-N7-((R)-1,1,1-trifluoropropan-2-yl)-3,4-dihydro-1,4-methanopyrido[2,3-b][1,4]diazepine-5,7(2H)-dicarboxamide]
> 150	A (EC1.5<1 μM)	C[C@@H](NC(=O)c1ccc2c(n1)N(C(=O)Nc1cc(-c3cncn3C)ccn1)[C@H]1CCN2C1)C(F)(F)F [Example 86, (4S)—N5-(4-(1-methyl-1H-imidazol-5-yl)pyridin-2-yl)-N7-((R)-1,1,1-trifluoropropan-2-yl)-3,4-dihydro-1,4-methanopyrido[2,3-b][1,4]diazepine-5,7(2H)-dicarboxamide]
> 150	A (EC1.5<1 μM)	C[C@@H](NC(=O)c1ccc2c(n1)N(C(=O)Nc1nccs1)[C@H]1CCN2C1)C(F)(F)F [Example 191, (4S)—N5-(thiazol-2-yl)-N7-((R)-1,1,1-trifluoropropan-2-yl)-3,4-dihydro-1,4-methanopyrido[2,3-b][1,4]diazepine-5,7(2H)-dicarboxamide]
> 150	B (EC1.5 1-25 μM)	C[C@H](NC(=O)c1ccc2c(n1)N(C(=O)Nc1ccccn1)[C@H]1CCN2C1)C(F)(F)F [Example 207, (4S)—N5-(pyridin-2-yl)-N7-((S)-1,1,1-trifluoropropan-2-yl)-3,4-dihydro-1,4-methanopyrido[2,3-b][1,4]diazepine-5,7(2H)-dicarboxamide]
> 150	A (EC1.5<1 μM)	COc1ccnc(NC(=O)N2c3nc(C(=O)N[C@H](C)C(F)(F)F)ccc3N3CC[C@H]2C3)c1 [Example 135, (4S)—N5-(4-methoxypyridin-2-yl)-N7-((R)-1,1,1-trifluoropropan-2-yl)-3,4-dihydro-1,4-methanopyrido[2,3-b][1,4]diazepine-5,7(2H)-dicarboxamide]
> 150	B (EC1.5 1-25 μM)	Cc1ncc(-c2ccnc(NC(=O)N3c4nc(C(=O)N[C@@H](C)C(F)(F)F)ccc4N4CC[C@H]3C4)c2)o1 [Example 126, (4S)—N5-(4-(2-methyloxazol-5-yl)pyridin-2-yl)-N7-((S)-1,1,1-trifluoropropan-2-yl)-3,4-dihydro-1,4-methanopyrido[2,3-b][1,4]diazepine-5,7(2H)-dicarboxamide]
> 150	A (EC1.5<1 μM)	CNC(=O)c1ccnc(NC(=O)N2c3nc(C(=O)N[C@H](C)C(F)(F)F)ccc3N3CC[C@H]2C3)c1 [Example 151, (4S)—N5-(4-(methylcarbamoyl)pyridin-2-yl)-N7-((R)-1,1,1-trifluoropropan-2-yl)-3,4-dihydro-1,4-methanopyrido[2,3-b][1,4]diazepine-5,7(2H)-dicarboxamide]
